We go through 1 compound from US6319910A, “Method for inhibiting cyclooxygenase-2 and tumor necrosis factor alpha” (Hospital for Joint Diseases, priority 1998, dated 2001).

Assay [1] relates to OA-affected cartilage. Description: Spontaneous PGE2 release by OA-affected cartilage (ex vivo organ culture). In kind it is cell-based, human.
Assay [2] deals with RAW 264.7 cells. Put plainly: Nitrite (NO) production/accumulation in LPS-stimulated RAW 264.7 cells. Format: cell-based, murine. The following applies: LPS 100 ng/ml; for Nitrite / inhibition at 10 µg/mL: compound 10 μg/ml; for Effect on NO production: words; for inhibition at 10 µg/mL: Mus musculus, RAW264.7, 16 h.
For assay [3], the system named is NOS. The following applies: previously shown; words; cited from earlier work.
Assay [4] deals with RAW 264.7 cells. Put plainly: PGE2 production/accumulation in LPS-stimulated RAW 264.7 cells. Format: cell-based, murine. The following applies: for inhibition at 10 µg/mL: Mus musculus, RAW264.7, 16 h, read-out: PGE2 % Inhibition or (Increase).
Assay [5] deals with NOS. Put plainly: NOS expression in LPS-stimulated murine macrophages. In kind it is cell-based. Conditions: FIG. 2; LPS 100 ng/ml; words. The procedure: RAW 263.7 cells were grown as previously described (Amin et al, 1995b). Murine macrophages stimulated with 100 ng/ml LPS were incubated with CMT-3 or tunicamycin (a glycosylation inhibitor). […] Nitrite and PGE2 were estimated as previously described (Amin et al, 1995b). It is quite possible that CMT-3 may inhibit COX-2 and PGE2 production by post translational modification of COX-2 which may be similar to tunicamycin inhibition. The data represents the mean±SD evaluated by T test (n=3).

For assay [6], the system named is OA-affected cartilage. Description: Spontaneous nitrite/nitric oxide release by OA-affected cartilage (ex vivo organ culture). In kind it is cell-based, human.
A further assay relates to iNOS mRNA. The following applies: Amin et al, 1997b; words; cited from earlier work.
The target in another assay is T1, COX-2 (Mus musculus, UniProt Q05769).
T1 construct: using total unfractionated cell extracts; endogenous in cells; host or cells: RAW 264.7 cells, LPS-induced; cell-free extract
T1 sequence (Q05769 18-604): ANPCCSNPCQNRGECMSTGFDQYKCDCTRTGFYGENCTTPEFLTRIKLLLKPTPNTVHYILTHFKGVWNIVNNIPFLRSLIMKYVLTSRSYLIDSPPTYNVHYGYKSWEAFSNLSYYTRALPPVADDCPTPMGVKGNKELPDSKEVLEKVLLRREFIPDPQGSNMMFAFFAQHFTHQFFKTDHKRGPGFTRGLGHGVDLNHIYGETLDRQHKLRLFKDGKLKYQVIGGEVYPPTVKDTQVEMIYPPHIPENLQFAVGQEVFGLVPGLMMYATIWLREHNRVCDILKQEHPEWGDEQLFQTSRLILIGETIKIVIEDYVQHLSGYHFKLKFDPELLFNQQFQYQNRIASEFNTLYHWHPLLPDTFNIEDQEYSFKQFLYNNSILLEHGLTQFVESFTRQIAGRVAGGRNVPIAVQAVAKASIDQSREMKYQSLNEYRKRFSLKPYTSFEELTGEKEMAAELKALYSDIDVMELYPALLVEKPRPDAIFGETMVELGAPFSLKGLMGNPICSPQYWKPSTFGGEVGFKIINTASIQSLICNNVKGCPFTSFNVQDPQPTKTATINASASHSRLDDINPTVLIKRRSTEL
Description: COX-2 specific activity in cell-free extracts of LPS-stimulated RAW 264.7 cells (PGE2 by RIA). Format: biochemical, murine. The procedure:
Raw 264.7 cells were stimulated with LPS and cell-free extracts were prepared as follows. RAW 264.7 cells were induced with LPS (100 ng/ml) in the presence or absence of tetracyclines or hydrocortisone for 14-20 hours. Following induction, the cells were pelleted at 4° C. and resuspended in Tris buffer: 10 mM, pH 7.4 containing 10 μg/ml each of chymostatin, antipain, leupeptin and pepstatin, 1 mM DDT and 1 mM PMSF. Cells were lysed in a Polytron PA 1200 homogenizer (Kinematica AG, Switzerland) with the cocktail of protease inhibitors after 3 cycles of rapid freeze-thawing. The lysate was centrifuged at 18,000 at 4° C. in an eppendorf centrifuge, and the resulting supernatant was used as cell-free extracts. The protein was measured by BCA assay reagent (Pierce, Rockford, Ill.) using BSA as standard. […] The specific enzyme activity was defined as ng of PGE2 released/mg protein/37° C. for 20 minutes.
RAW 264.7 cells were stimulated with 1 μg/ml of LPS for 16 hours and cell-free extracts were prepared as described above. The extracts were incubated with different modulators for 20 minutes at 37° C. before adding the substrate to initiate the enzyme reaction, which was terminated after 30 minutes by heat inactivation. The data represent one of the two experiments, the PGE2 analysis from each sample was done in triplicates n=3. The p value is a comparison between control and experimentals.

Setting [7] is: human OA-affected cartilage, words.
[8] abbreviates: Experiment II, LPS 100 ng/ml, compound 10 μg/ml, 16 hours.

SMILES strings stand for the structures. “Also recorded” adds a separate entry of the source.

The term inhibition denotes the share of the control response that was lost under treatment. Consider `NC(=O)C1=C(O)C2(O)C(=O)C3=C(O)c4c(O)cccc4CC3CC2CC1=O` (stereo not drawn) [CMT-3, 6-demethyl-6-deoxy-4-dedimethylaminotetracycline], for which, in the assay with OA-affected cartilage [1] (Homo sapiens, Table 2, 5 μg/ml), testing at 5 µg/mL gave an inhibition of 60%. Besides, the PGE2 in the assay with OA-affected cartilage [1] (Table 2, 5 μg/ml) was found to be 88.0 ± 21.4 ng/mL. Also, the “Effect on PGE2 production” value is “significantly inhibit; also recorded: inhibits COX-2 expression and PGE2 production” with OA-affected cartilage [1] (setting [7]); “blocks both NO and PGE2 production” in the assay on RAW 264.7 cells [4] (FIG. 1, LPS 100 ng/ml, 16 hours, words); “inhibit” with RAW 264.7 cells [4] (FIG. 2, LPS 100 ng/ml, words). Besides, the Nitrite is 24.7 µM with RAW 264.7 cells [2] (Experiment I, 16 hours); 11.7 µM in the assay with RAW 264.7 cells [2] (Experiment II, 16 hours); 75.0 ± 25.0 µM in the assay on OA-affected cartilage [6] (Table 2, 5 μg/ml). Moreover, the “Effect on NO production” value in the assay on RAW 264.7 cells [2] (FIG. 1, 16 hours) was “blocks both NO and PGE2 production”; with RAW 264.7 cells [2] (FIG. 2), “inhibit”; in the assay on OA-affected cartilage [6] (setting [7]), “significantly inhibit; also recorded: inhibiting NO production”. Also, the inhibition at 10 µg/mL in the assay on RAW 264.7 cells [2] (Experiment I, 16 hours) was 48%; with RAW 264.7 cells [2] (Experiment II, 16 hours), 46%; in the assay on RAW 264.7 cells [4] (Experiment I, LPS 100 ng/ml, compound 10 μg/ml, 16 hours), 66%; in the assay with RAW 264.7 cells [4] (setting [8]), 67%. Also, in the assay with NOS [3], the NOS activity result is on record as “inhibit NOS activity”. The PGE2 accumulation in the assay with RAW 264.7 cells [4] (16 h, 10 ug/mL) worked out at 8.7 ± 2.4 ng/mL; with RAW 264.7 cells [4] (setting [8]) it was 6.5 ± 0.5 ng/mL. For the same compound, in the assay on RAW 264.7 cells [4] (FIG. 1, CMT-3+L-NMMA, LPS 100 ng/ml, words), the “Effect on L-NMMA induced PGE2 production” value is “blocks L-NMMA induced PGE2 production”. In the assay with RAW 264.7 cells [4] (independent of intracellular NO, words), the “Effect on COX-2 activity” value was “inhibits COX-2 activity independent of intracellular NO concentrations”. Besides, the “Effect on NOS expression” value with NOS [5] is given as “inhibit”. Further, in the assay on iNOS mRNA, the “Effect on iNOS mRNA expression” value is recorded as “inhibiting iNOS mRNA expression”. Moreover, the “Effect on specific activity of COX-2” value at COX-2 (CMT-3 27 μM, CMT-8 27 μM, aspirin 56 μM, indomethacin 28 μM, words) was “significantly inhibited the specific activity of COX-2”. In addition, the “COX-2 Specific Activity” value at COX-2 (Table 3, cell-free extracts, 10 μg (aspirin amount not given)) amounted to 2.8 ± 4.0 PGE2 ng/mg protein.
